Values of other authors, collected in patent US20110274624A1, “CONTRAST AGENTS IN POROUS PARTICLES” (WILLIAM MARSH RICE UNIVERSITY, priority 2010, published 2011).
Read-outs that look alike come from different tables or passages of the source.

Row | Structure (SMILES) | r1 per Gd^3+ ion (1.41T) | longitudinal relaxivity r1 (field not stated) | r1 per Gd^3+ ion (1.5T)
1 | O=C([O-])CN(CCN(CC(=O)[O-])CC(=O)[O-])CCN(CC(=O)[O-])C(COCc1ccccc1)C(=O)[O-].[Gd+3] (stereo not shown) [Gd-BOPTA] | 4.1 (1. 41T) mM^−1s^−1 | – | –
2 | CC(O)CN1CCN(CC(=O)[O-])CCN(CC(=O)[O-])CCN(CC(=O)[O-])CC1.[Gd+3] (stereo not shown) [Gd-HP-DO3A] | 3.2 (1. 41T) mM^−1s^−1 | – | –
3 | [Gd+3] [Gd^3+ ion] | – | ~8 mM⁻¹ s⁻¹ | –
4 | O=C([O-])CN1CCN(CC(=O)[O-])CCN(CC(=O)[O-])CCN(CC(=O)[O-])CC1.[Gd+3] [Gd-DOTA] | 3.1 (1.41T) mM^−1s^−1 | – | –

Now from value to compound:

Row | r1 per Gd^3+ ion (1.41T) | longitudinal relaxivity r1 (field not stated) | r1 per Gd^3+ ion (1.5T) | Structure (SMILES)
5 | 3.4 (1.41T) mM^−1s^−1 | – | ~4 mM⁻¹ s⁻¹ | O=C([O-])CN(CCN(CC(=O)[O-])CC(=O)[O-])CCN(CC(=O)[O-])CC(=O)[O-].[Gd+3] [MAG, Gd-DTPA]
6 | 3.6 (1. 41T) mM^−1s^−1 | – | – | CNC(=O)CN(CCN(CCN(CC(=O)[O-])CC(=O)NC)CC(=O)[O-])CC(=O)[O-].[Gd+3] [Gd-DTPA-BMA]
